Columns and labels:
DDX3X = DDX3X (Homo sapiens, UniProt O00571); assay: nanoDSF enzymatic binding (melting temperature shift); design: human DDX3X (residues 132-607, UniProtID: 000571, produced by Proteros GmbH); purchased Proteros GmbH; details: Compound 100 µM, DDX3 4 µM
Excerpt: The binding of compounds to DDX3X have been assessed by nanoDSF analysis (NanoTemper Technologies GmbH, Flößergasse 4, 81369 München, Germany). NanoDSF technology is a Differential Scanning Fluorimetry method which measures the protein stability with high resolution without the need of a dye. In particular it measures the changes of the intrinsic tryptophan fluorescence at 330 and 350 nm and it is used to determine the melting temperature of a protein. In the folded state the residues of tryptophan are buried in the hydrophobic core. During denaturation the residues are more exposed and the fluorescence changes in both intensity and wavelength. In a typical experiment, the protein is mixed with the ligand in the reaction buffer and transferred into a capillary. The fluorescence is monitored over temperature gradient between 20 and 95°C with an increment of 2.5°C per minute. The interaction of the ligand to the folded state of the protein shifts the protein melting temperature (Tm) at higher or lower temperature.
Experimental conditions: the experiments were conducted with the device Prometheus NT.48 (NanoTemper Technologies GmbH), the enzyme used was the human DDX3X (residues 132-607, UniProtID: 000571, produced by Proteros GmbH). The assessed compounds were dissolved in pure DMSO adequate to obtain a concentration of compound of 100µM and DMSO 1% (v:v) in final solution. Reaction buffer for DDX3X was 20 mM HEPES, pH 7.5, 0.5 mM TCEP, 500 mM NaCl, 10% (v:v) Glycerin, with a final reaction volume of 10 µL and a final DMSO concentration of 1% (v:v). The reaction was performed in "High sensitivity capillaries" in the range of 20-95°C with a heating rate of 2.5°C/min, with an incubation time of 60 minutes.
• 1) Add appropriate volume of target enzyme in reaction buffer • 2) Add compound(s) in 100% DMSO (1% final DMSO conc.) • 3) Fill the capillary • 4) Measure fluorescence
The assay development was performed with DDX3X protein alone showing a Tm at 54.6 °C.
Binding of compound 5 was assessed with the NanoDSF technique, evaluating the association of the aforementioned compound with APO DDX3X and in presence of a competitor for the ATP binding site, Adenylyl imidodiphosphate (AMPPNP) to assess competition of compound 5 for the DDX3X ATP binding site. Table 6. Final protein and compound concentrations in the various assay setup:
All the measures were performed in triplicate and the average (Mean Tm) and standard deviation (SD) were calculated with the following equations: [formula] and SD = sqrt((∑((Tm−Mean Tm))^2)/(n−1)) [formula]
A change of 5xSD from the 1% DMSO control mean is considered to be a significant Tm change. Test of DDX3X with 1% DMSO was performed to obtain the reference melting temperature of the protein alone. Compounds are considered as binders if the Tm shifts by >= 5 times the standard deviation of the control (protein in the absence of compound). Table 7. DDX3X melting temperatures (Tm) at various experimental conditions

Plasma stability [1] = assay type: in vitro ADME, Sprague Dawley rats; details: Rat plasma
Procedure: (§1) Plasma previously separated from whole blood in EDTA-treated tubes and frozen; blood samples obtained from healthy volunteers, Sprague Dawley rats and CD1 mice, was thawed at room temperature and centrifuged at 1400x RCF 4°C, for 15 minutes. Approximately 90% of the clear supernatant fraction was transferred to a separate tube and was used for the assay.
(§2) Stocks (1 mM and 25 µM) of test compound were prepared in acetonitrile:water (50:50 v/v). Plasma samples were heat inactivated at 54°C. 3 µl of 25 µM test compound were added to 72 µl of heat inactivated plasma. A 50 µL aliquot of the mixture was taken and crashed with 200 µl of acetonitrile containing Telmisartan 100 ng/ml as internal standard and was further processed along with other time points: 10, 30 60 and 120 minutes.
(§3) Final working stock of 1 µM was prepared by diluting 12 µl of 25 µM stock in 288 µl of plasma. The obtained solution (300 µl) of plasma containing the test compound was incubated for […] at 37°C in shaker water bath with gentle shaking. 50 µl aliquot of sample at 10, 30, 60 and 120 min was precipitated immediately with 200 µl of acetonitrile containing internal standard and centrifuged at 4000x RCF, 4°C for 20 minutes. 150 µl of supernatant was diluted with 150 µl of water and analyzed by LC-MS/MS.
(§4) The % remaining of the test substance was calculated as: (Peak Area ratio at time (min))/(Peak Area Ratio at 0 min) ^∗ 100
(§5) The API400 MS and Agilent 1260 Infinity LC were used. Mobile Phase included 10mM Ammonium acetate with 0.1% formic acid in MilliQ water, and Methanol. The column was Phenomenex, KINETIC EVO C18 100A 5u 50^∗4.6 mm, 10 µl injection volume.

[2] = Tissue distribution after single I.P. administration; assay type: in vivo, male Swiss Albino Mice
[3] = Kinetic solubility (turbidimetry); assay type: physicochemical; details: for Absorbance at 620nm: PBS pH 7.4, 37°C, 2 h
Procedure: Kinetic solubility was assessed in phosphate buffered saline at pH 7.4 according to the turbidimetry method. Turbidity (precipitation) was measured by absorbance at 620 nm following incubation at 37°C for 2 h. Stock solution of compounds in DMSO were prepared to produce the desired final range of concentrations, then these were added to the buffer to obtain the final test compound concentrations (1 µM, 3 µM, 10 µM, 30 µM, 100 µM), with a final DMSO concentration 1%). Solubility was estimated from the concentration of tested compound that produced a significant increase in absorbance (≥ 0.003 OD at 620 nm) above vehicle control (1% DMSO in water). Miconazole, Reserpine and Propranolol were used as controls.

Plasma stability [4] = assay type: in vitro ADME; details: Human plasma
Procedure: as §1, §2, §3, §4, §5

Chain of DDX3X (O00571 132-607): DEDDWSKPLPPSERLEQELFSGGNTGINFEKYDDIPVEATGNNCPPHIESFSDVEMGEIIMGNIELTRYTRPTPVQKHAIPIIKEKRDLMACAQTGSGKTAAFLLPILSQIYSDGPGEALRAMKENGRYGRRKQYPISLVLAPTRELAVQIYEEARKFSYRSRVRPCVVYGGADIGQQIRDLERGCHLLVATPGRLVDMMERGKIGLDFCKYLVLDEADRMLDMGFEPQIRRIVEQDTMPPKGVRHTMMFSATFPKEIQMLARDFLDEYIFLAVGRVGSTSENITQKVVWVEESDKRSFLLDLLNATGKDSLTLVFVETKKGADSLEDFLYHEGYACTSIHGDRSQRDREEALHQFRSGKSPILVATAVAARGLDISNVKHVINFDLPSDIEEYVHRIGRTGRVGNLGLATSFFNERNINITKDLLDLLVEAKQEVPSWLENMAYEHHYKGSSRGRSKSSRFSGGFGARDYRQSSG

Compound: CCCCc1cn(-c2ccc(-c3nnc(-c4ccccc4C(F)(F)F)o3)cc2)nn1 [Compound 5]
- Comment (Tm shift) (DDX3X; AMPPNP 100 µM): significant Tm shift to higher Tm, compound interference
- Mean Tm (DDX3X; AMPPNP 100 µM): 56.8 °C
- Comment (Tm shift) (DDX3X; no AMPPNP): significant Tm shift to higher Tm, compound interference
- Mean Tm (DDX3X; no AMPPNP): 56.9 °C
- % Remaining ± SD (Plasma stability [1]; 0 minutes): 100.0 ± 1.0%
- % Remaining ± SD (Plasma stability [1]; 10 minutes): 107.1 ± 4.1%
- % Remaining ± SD (Plasma stability [1]; 30 minutes): 103.3 ± 2.3%
- % Remaining ± SD (Plasma stability [1]; 60 minutes): 99.0 ± 6.8%
- % Remaining ± SD (Plasma stability [1]; 120 minutes): 104.8 ± 5.6%
- Kidney to plasma ([2]; 4 hours after single administration I.P. 45 mg/Kg): 11.5
- Kidney to plasma ([2]; 8 hours after single administration I.P. 45 mg/Kg): 9.2
- Kidney to plasma ([2]; 24 hours after single administration I.P. 45 mg/Kg): 9.3
- solubility at 2 h ([3]; 37 °C, aqueous buffer, kinetic from dmso stock, kinetic solubility, PBS pH 7.4, read-out: solubility): > 100 µM
- Absorbance at 620nm ([3]; conc. 1 µM): 0.037
- Absorbance at 620nm ([3]; conc. 3 µM): 0.037
- Absorbance at 620nm ([3]; conc. 10 µM): 0.037
- Absorbance at 620nm ([3]; conc. 30 µM): 0.037
- Absorbance at 620nm ([3]; conc. 100 µM): 0.038
- % Remaining ± SD (Plasma stability [4]; 0 minutes): 100.0 ± 3.9%
- % Remaining ± SD (Plasma stability [4]; 10 minutes): 107.1 ± 7.7%
- % Remaining ± SD (Plasma stability [4]; 30 minutes): 87.2 ± 10.3%
- % Remaining ± SD (Plasma stability [4]; 60 minutes): 88.3 ± 7.0%
- % Remaining ± SD (Plasma stability [4]; 120 minutes): 88.2 ± 8.2%
